pIC50: −log10 of the molar value. Where two headings read alike, the source gives them in different places.
Key:
SNU-5 cells = assay: Immunoblot analysis of apoptotic markers; assay type: cell-based, Human; details: 30 nM, 24 hours
Method: (§1) Cells were seeded in 10 cm dishes at varying densities and allowed to adhere by incubating at 37° C. and 5% CO2 overnight. […] Cells were harvested in 250 μL lysis buffer containing protease and phosphatase inhibitors. For suspension cell lines, cells were pelleted prior to lysis buffer addition. Protein concentrations for individual lysates were measured using a BCA protein assay. 25 μg of protein lysate per sample was resolved on Life Technologies (Carlsbad, Calif.) NuPAGE Bis-Tris gels per manufacturer's. Samples were transferred to nitrocellulose membranes for Western blot analysis. Membranes were blocked in 5% milk prepared in TBST for 1 hour at room temperature. Total and phospho-specific antibodies for specified endpoints were used at 1:1000 dilutions in 5% milk/TBST (total) or 5% BSA/TBST (phospho). Membranes were incubated in the presence of appropriate primary antibody overnight at 4° C. Secondary anti-species-IgG HRP conjugated antibodies were diluted 1:5000 in 5% milk/TBST and incubated in the presence of membranes for 1 hour at room temperature. Membranes were exposed to Thermo Scientific (Waltham, Mass.) Super Signal PICO West ECL detection reagent per manufacturer's recommended protocol and exposed to film to document signal.
(§2) Antibodies detecting total and phospho-MET (Y1234/1235), phospho-Gab1 (Y627), total and phospho-AKT (S473), total and phospho-ERK (T202/Y204), cleaved caspase-3, and cleaved PARP were purchased from Cell Signaling Technologies (Beverly, Mass.). The total β-actin antibody was purchased from Thermo Scientific (Waltham, Mass.). Both secondary anti-rabbit and anti-mouse IgG-HRP conjugated antibodies were purchased from Thermo Scientific (Waltham, Mass.).
(§3) Flow cytometry cell cycle analysis of MET amplified gastric cancer cell line MKN-45 is represented in FIG. 6. […] BrdU labeling was performed during the final 2 hours of compound treatment. […] Cells were then analyzed by flow cytometry to document effects on the cell cycle. […] Subsequent lysates were analyzed by SDS-PAGE and immunoblot using antibodies detecting cleaved PARP, cleaved caspase-3 and β-actin.

MKN-45 cells = assay: Immunoblot analysis of apoptotic markers; assay type: cell-based, Human; details: 30 nM, 24 hours
Method: as §1, §2, §3

SNU-620 cells = assay: Immunoblot analysis of apoptotic markers; assay type: cell-based, Human; details: 30 nM, 24 hours
Method: as §1, §2, §3

MKN-45 = assay: 72 hour cancer cell line viability assay (CellTiter-Glo); assay type: cell-based; details: Homo sapiens
Method: (§4) Human cancer cell lines were purchased from ATCC, JCRB, Sigma Aldrich or DSMZ. All cell lines were propagated in growth media per the suppliers' recommendation and maintained in 5% CO2 and 37° C.
(§5) Cancer cell line viability assays were carried out using the CellTiter-Glo Luminescent Cell Viability Assay from Promega (Madison, Wis.). Optimal cell seeding densities were determined using time lapse imaging to maximize signal window and ensure cells were not contact growth inhibited at the 72 hour time point. Cells were seeded in 96 well plates in complete growth media and allowed to adhere to the bottom of the plate by incubation at 37° C. and 5% CO2 overnight. […] Plates were incubated at 37° C. and 5% CO2 for 72 hours. Treated plates were then allowed to equilibrate to room temperature along with, CellTiter-Glo substrate and buffer solution prior to use in the viability assay. CellTiter-Glo substrate vials were reconstituted in 10 mL of buffer solution and added to assay plates in 100 μL/well volumes. Plates were shaken for 2 minutes at 700 rotations per minute with an orbit diameter of 3 mm followed by room temperature incubation for 10 minutes. Plates were then read using an Envision plate reader on luminescent setting.
(§6) To calculate growth inhibition effects (0-200% scale), time zero vehicle treated wells (V0), were read at the time of compound addition for each cell line.
(§7) Threshold for high vs low MET copy number was set at aCGH log 2 ratio of 2.5. Focal nature of MET copy number increase was defined qualitatively using tiled aCGH results for chromosome 7.
(§8) Percent growth inhibition is reported on a 0-200% scale where 0% is equivalent to no effect (time 72 hour control), 100% is equivalent to stasis (time 0 hour control) and 200% is equivalent to complete cell death.

NCI-H1993 = assay: as above; assay type: cell-based; details: Homo sapiens
Method: as §4, §5, §6, §7, §8

[1] = system: panel of 20 cancer cell lines; assay: 72 hour viability assays, sensitivity status over the panel; assay type: cell-based; details: Homo sapiens
Method: as §4
as §5, with “Plates were shaken for 2 minutes at 700 rotations per minute with an orbit diameter of 3 mm followed by room temperature incubation for 10 minutes.” left out
MET copy number for individual cell lines was determined by array comparative genomic hybridization (aCGH) and reported as log 2 ratio of cell line to pooled control DNA from 40 normal donors. […]

Compound: COCCOc1cnc2ccn([C@H](C)c3nnc4c(F)cc(-c5cnn(C)c5)cn34)c(=O)c2c1 [Compound M, 6-{(1R)-1-[8-fluoro-6-(1-methyl-1H-pyrazol-4-yl)[1,2,4]triazolo[4,3-a]pyridin-3-yl]ethyl}-3-(2-methoxyethoxy)-1,6-naphthyridin-5(6H)-one]
- cleaved PARP and cleaved caspase-3 levels (SNU-5 cells): clear induction of both cleaved PARP and cleaved caspase-3
- cleaved PARP and cleaved caspase-3 levels (MKN-45 cells): No induction of cleaved PARP or cleaved caspase-3
- cleaved PARP and cleaved caspase-3 levels (SNU-620 cells): elevated cleaved PARP and cleaved caspase-3 levels
- pIC50 (MKN-45; MKN-45, Gastric, MET copy number High, focal Yes, 72 hour viability): 8.05
- Emax (MKN-45; MKN-45, 72 hour, 0-200% scale, 100% = stasis, read-out: maximum effect, growth inhibition): 100%
- pIC50 (NCI-H1993; NCI-H1993, NSCLC, MET copy number High, focal Yes, 72 hour viability): 7.77
- Emax (NCI-H1993; NCI-H1993, 72 hour, 0-200% scale, 100% = stasis, read-out: maximum effect, growth inhibition): 100%
- pIC50 ([1]; insensitive cell lines, read-out: IC50 values from the viability assay, cell lines binned as insensitive): < 5.52
- pIC50 ([1]; sensitive cell lines, read-out: IC50 values from the viability assay, cell lines binned as sensitive): 7.77 to 8.70

Source: patent US10328062B2, “Biomarkers and use of MET inhibitor for treatment of cancer” (AMGEN, INC., priority 2014, dated 2019)
